Test results: ChEMBL document CHEMBL1131366, “Development of new chromanol antagonists of leukotriene D4” (Bioorg Med Chem Lett, 1998)

Experiments:
[1] = test system: Cavia porcellus; assay: Compound was tested for antigen induced airway obstruction in guinea pig at 1.0 hr upon peroral administration; format: functional; conditions: po
[2] = test system: U-937; assay: Compound was evaluated for influx of calcium mobilization in human U937 cells; format: functional, cell-based
[3] = test system: Cavia porcellus; assay: Compound was tested for antigen induced airway obstruction in guinea pig at 2.0 hr upon peroral administration; format: functional; conditions: po

Q: For `O=C(Nc1cccc2c(=O)cc(-c3nnn[nH]3)oc12)c1ccc(OCCCCc2ccccc2)cc1`, which ED50 [1] is on record?
A: The ED50 was 1.5 mg/kg.

Q: And the IC50 [2]?
A: The IC50 was 1 nM.

Q: How did the ED50 [3] turn out when `O=C(O)c1cccc(C[C@@H]2COc3ccc(OCc4nc5cc(F)ccc5s4)cc3[C@@H]2O)c1` was run?
A: Its ED50 is 10.2 mg/kg.

Q: What about the IC50 [2] of the same molecule?
A: Its IC50 is 310 nM.

Q: Which ED50 [1] does the source give for `C[C@H]1Oc2ccc(OCc3nc4cc(F)ccc4s3)cc2[C@H](O)[C@@H]1Cc1cccc(NS(=O)(=O)C(F)(F)F)c1` (stereo in doubt; (+)-26) here?
A: The ED50 was 0.5 mg/kg.

Q: What about the IC50 [2] of the same molecule?
A: Its IC50 is 8 nM.

Q: With `COc1cc(C(=O)NS(=O)(=O)c2ccccc2C)ccc1Cc1cn(C)c2ccc(NC(=O)OC3CCCC3)cc12` [ZAFIRLUKAST] as the molecule, how does the ED50 [3] read?
A: The ED50 was 0.9 mg/kg.
